# Data published in PMC4760439, “Glicentin‐related pancreatic polypeptide inhibits glucose‐stimulated insulin secretion from the isolated pancreas of adult male rats” (Physiological Reports, 2015).
# Entries after “also recorded” stand apart in the source; their conditions may differ.
# Key:
# [1] = tested on: canine pancreas; conditions: cited from earlier work
# Text: However, we know of only one study reporting the effects of GRPP on GSIS. […] The precise experimental conditions such as amount of glucose and experimental model used may have influences on the different outcomes; however, the reason for the opposing actions of GRPP between these ...
# [2] = tested on: perfused rat liver; test: Isolated perfused rat liver: glucose output, lactate output, portal pressure; design: species or system Male Sprague‐Dawley rat; conditions: for Lactate output (effect of peptide vs control) / Portal pressure (effect of peptide vs control) / Glucose output, epinephrine‐stimulated (effect of peptide vs control): 2.3 or 230 pmol g^−1 min^−1 (n = 5 and n = 3), epinephrine 100 pmol g^−1 min^−1, 30–60 min; for Glucose output, epinephrine‐stimulated (effect of peptide vs control): 37°C
# Description: (§1) All studies were performed under approval of the University of Auckland Animal Ethics Committee and were consistent with the ARRIVE guidelines (Kilkenny et al. 2012). Male Sprague‐Dawley rats (220–300 g) were obtained from a breeding colony in the Integrated Physiology Unit, School of Biological Sciences at the University of Auckland. Animals were housed in standard environmental conditions under a 12‐hour light/dark cycle and a temperature of 20 ± 1°C. They were maintained on Teklad TB 2018 (Harlan, UK) rat chow and tap water ad libitum.
# Under general anesthesia (isoflurane 2–5%; 2 L min^−1 O2 via nasal cone), nonfasted rats underwent laparotomy between 8:00 and 9:00 AM on the experimental day. The liver was removed and quickly connected to a custom‐made, temperature‐controlled, organ perfusion system, whereby it was perfused (in nonrecirculating mode) in a manner similar to that reported previously (Englisch et al. 2000; Whiting et al. 2013). Livers were perfused at a rate of 2 mL g^−1 min^−1 with perfusion media containing final concentrations (in mmol L^−1): NaCl, 128; NaHCO3, 23.9; KCl, 6.0; CaCl2, 2.4; MgSO4, 1.18; D‐glucose, 5; 3‐(‐N‐morpholino)propane sulfonate, 1.29; with fatty‐acid‐free BSA, 0.5% (w/v) at pH 7.4 gassed with O2:CO2 95:5% (v/v) at 37°C. Each liver was stabilized for 40 min: thereafter, hormone‐containing solutions or vehicle (buffer only) was delivered via a side‐arm infusion. Hormones were also investigated with regard to their ability to attenuate epinephrine‐stimulated hepatic glucose output (Epinephrine, Sigma‐Aldrich, St. Louis, MO). Epinephrine was added 30 min after the addition of hormones was commenced.
# (§2) Measurement of organ perfusion parameters
# (§3) Glucose and lactate concentrations were measured in both organ preparations using a YSI2300 Stat glucose and lactate analyzer (Yellow Springs, Ohio). Portal pressure was measured in isolated‐perfused liver preparations in mmH2O via a T‐tube located 10 cm upstream from the preparation.
# (§4) Maximum pancreatic first‐phase insulin secretion in the presence of hormone infusion was contrasted with corresponding control values by unpaired Welch's t‐tests for preplanned comparisons, to allow for unequal variance between groups. Linear mixed‐effects models were fitted by restricted maximum likelihood (LME‐REML) to data obtained from each indicated phase of isolated perfused–organs studies, using S‐PLUS version 8.2 (TIBCO, Spotfire). Calculated P‐values <0.05 are presented in the article and reflect the likelihood ratio between two models, the effect in question (treatment, time, or treatment:time) against the model without the effect in question. Insulin secreted from isolated islets was expressed as a percentage of insulin content and compared using one‐way ANOVA (GraphPad Prism version 6.0: GraphPad Software Inc., San Diego, CA). Cyclic AMP data have been normalized to the response obtained to forskolin and fitted to obtain concentration–response curves using a three‐parameter logistic equation (GraphPad Prism version 6.0: GraphPad Software Inc., San Diego, CA): pEC50 values were obtained from the concentration–response curves and compared using one‐way ANOVA. All data are presented as mean ± SEM of three to four independent experiments.
# Figure 2 Effect of rGRPP and rGRPP‐LP on glucose output, lactate output, and portal pressure in the isolated perfused rat liver. Livers from Sprague‐Dawley rats were isolated and perfused with rGRPP (left panels: 2.3 or 230 pmol g^−1 min^−1, n = 5 and n = 3, respectively), rGRPP‐LP (right panels: 2.3 or 230 pmol g^−1 min^−1, n = 5 and n = 3), or vehicle (all panels: control, n = 5). Livers were perfused with hormones or vehicle from 0 to 60 min with 0–30 min as the basal period.
# [3] = tested on: isolated perfused rat pancreas; test: Isolated perfused rat pancreas: insulin secretion (GSIS), lactate; design: species or system Male Sprague‐Dawley rat; conditions: for Insulin secretion at 5 mmol L^−1 glucose (vs control): first 20 min; for Insulin secretion at 5 mmol L^−1 glucose (vs control) / Glucose‐stimulated insulin secretion (GSIS) at 20 mmol L^−1 glucose (vs control): rGRPP and rGRPP‐LP 3 or 30 pmol min^−1, hGLP‐1 7–36 30 pmol min^−1, n = 5/group, insulin by ELISA, 37°C; for Glucose‐stimulated insulin secretion (GSIS) at 20 mmol L^−1 glucose (vs control): 20–40 min; for Glucose‐stimulated insulin secretion (GSIS) at 20 mmol L^−1 glucose (vs control) / First phase of GSIS (vs control) / Second phase of GSIS (vs control): 20 mmol L^−1 glucose; for First phase of GSIS (vs control): t = 22 min; for Second phase of GSIS (vs control): t = 26 min to t = 40
# Description: as §1
# Isolated pancreas perfusion
# General aspects of the preparation for the isolated pancreas perfusions were the same as those for the liver perfusion studies (above). Particular aspects of the preparation for the pancreas perfusion studies were as follows. After laparotomy, the pancreas and duodenum were removed en bloc and perfused (in nonrecirculating mode) consistent with our previous report (Buchanan et al. 2001). Each pancreatic preparation was quickly connected to the custom‐made, temperature‐controlled, organ perfusion system and perfused at 3 mL min^−1 with oxygenated perfusion buffer (containing at final concentrations in mmol L^−1): NaCl, 112; NaHCO3, 29.3; KCl, 4.4; CaCl2, 2.4; MgSO4, 1.2; D‐glucose, 5.0; with BSA, 0.5% (w/v), Dextran 4% (w/v) at pH 7.4 gassed with O2:CO2 95:5% (v/v) at 37°C. […] Each pancreas was stabilized for 30 min before hormones or vehicle (buffer only) was delivered via a side‐arm infusion.
# as §2, §3, §4
# Figure 3 Effects of proglucagon products on insulin secretion in the isolated‐perfused rat pancreas.
# [4] = target: T1, human glucagon receptor (hGL‐R) (Homo sapiens, UniProt P47871); test: cAMP stimulation in transfected Cos 7 cells, hGL‐R; format: cell-based; conditions: Cos 7, 37°C, 10 min, ALPHA‐screen
# T1 construct: expressed in transfected cells; host or cells: Cos 7 cells
# Description: (§5) Transfection of Cos 7 cells
# (§6) Cos 7 cells were maintained and subcultured as previously described (Bailey and Hay 2006) and plated at a density of 15,000 cells per well into 96‐well plates 1 day prior to transfection. […] Cyclic AMP assays were performed 48 h after transfection (Bailey and Hay 2006). The human GRPP was obtained from Bachem (Bubendorf, Switzerland).
# (§7) Cyclic AMP stimulation of transfected Cos 7 cells
# (§8) Transfected cells were serum‐deprived in DMEM containing 1 mmol L^−1 IBMX and 0.1% (w/v) bovine serum albumin (BSA) for 30 min. […] Plates were incubated at 37°C for 10 min. […] Media were then aspirated from the wells and reactions terminated by addition of ice‐cold absolute ethanol. Ethanol was then evaporated to dryness and cell extracts re‐suspended in 45 μL cAMP assay buffer: cAMP concentrations were determined using ALPHA‐screen assay kits (Perkin Elmer, Massachusetts) as previously described (Gingell et al. 2010).
# as §4, with “Cyclic AMP data have been normalized to the response obtained to forskolin and fitted to obtain concentration–response curves using a three‐parameter logistic equation (GraphPad Prism version 6.0: GraphPad Software Inc., San Diego, CA): pEC50 values were obtained from the concentration–response curves and compared using one‐way ANOVA. All data are presented as mean ± SEM of three to four independent experiments.” left out
# [5] = target: T2, human GLP‐1 receptor (hGLP‐1R) (Homo sapiens, UniProt P43220); test: cAMP stimulation in transfected Cos 7 cells, hGLP‐1R; format: cell-based; conditions: Cos 7, 37°C, 10 min, ALPHA‐screen
# T2 construct: expressed in transfected cells; host or cells: Cos 7 cells
# Description: as §5, §6, §7, §8
# (§9) Maximum pancreatic first‐phase insulin secretion in the presence of hormone infusion was contrasted with corresponding control values by unpaired Welch's t‐tests for preplanned comparisons, to allow for unequal variance between groups. […] Calculated P‐values <0.05 are presented in the article and reflect the likelihood ratio between two models, the effect in question (treatment, time, or treatment:time) against the model without the effect in question. […]
# [6] = target: T1, human glucagon receptor (hGL‐R); test: Antagonism of glucagon‐stimulated cAMP production, hGL‐R; format: cell-based; conditions: peptide preincubated 5 min
# Description: as §5, §6, §7, §8, §9
# [7] = target: T2, human GLP‐1 receptor (hGLP‐1R); test: Antagonism of GLP‐1 7–36‐stimulated cAMP production, hGLP‐1R; format: cell-based; conditions: peptide preincubated 5 min
# Description: as §5, §6, §7, §8, §9
# [8] = 100 pmol g^−1 min^−1, 30–60 min, all groups
# T2 sequence (P43220 24-463): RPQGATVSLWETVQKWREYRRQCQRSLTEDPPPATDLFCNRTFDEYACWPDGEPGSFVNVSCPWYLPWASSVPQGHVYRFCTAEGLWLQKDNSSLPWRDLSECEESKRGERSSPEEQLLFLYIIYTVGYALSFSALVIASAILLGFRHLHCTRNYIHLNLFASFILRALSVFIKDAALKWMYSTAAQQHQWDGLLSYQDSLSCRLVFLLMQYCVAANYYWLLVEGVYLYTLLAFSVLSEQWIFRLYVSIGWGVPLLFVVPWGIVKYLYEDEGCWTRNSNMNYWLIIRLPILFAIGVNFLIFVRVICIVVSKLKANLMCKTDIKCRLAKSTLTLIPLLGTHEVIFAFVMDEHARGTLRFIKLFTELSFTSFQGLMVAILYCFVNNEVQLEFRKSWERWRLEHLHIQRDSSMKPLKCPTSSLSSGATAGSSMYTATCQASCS
# T1 sequence (P47871 26-477): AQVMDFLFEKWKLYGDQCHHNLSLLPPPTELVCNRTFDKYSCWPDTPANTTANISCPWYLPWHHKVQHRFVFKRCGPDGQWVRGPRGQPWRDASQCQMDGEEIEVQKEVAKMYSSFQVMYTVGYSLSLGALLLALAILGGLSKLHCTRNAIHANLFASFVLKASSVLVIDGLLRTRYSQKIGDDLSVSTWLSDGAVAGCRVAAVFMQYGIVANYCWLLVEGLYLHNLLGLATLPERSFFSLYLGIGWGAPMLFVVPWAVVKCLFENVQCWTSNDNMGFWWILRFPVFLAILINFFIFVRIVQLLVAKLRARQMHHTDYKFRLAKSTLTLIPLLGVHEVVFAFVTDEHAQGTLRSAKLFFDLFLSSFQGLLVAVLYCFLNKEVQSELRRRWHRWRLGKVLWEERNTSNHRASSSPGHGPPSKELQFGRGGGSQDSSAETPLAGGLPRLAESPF
compound,measurement,setting,value
"porcine GRPP: porcine GRPP, literature peptide (RSLQNTEEKSRSFPAPQTDPLDDPDQMTED; Glicentin-related polypeptide; UniProt P01274 21-50, looked up)","Insulin and glucagon secretion, canine pancreas",[1]; ref Ohneda and Ohneda 1988,insulin was possibly increased and glucagon decreased
"HAPQDTEENARSFPASQTEPLEDPNQINE [rGRPP‐LP, rat GRPP‐like peptide]",Lactate output (effect of peptide vs control),[2],Neither dose of rGRPP nor rGRPP‐LP modified these parameters compared with control values
same,Portal pressure (effect of peptide vs control),[2],Neither dose of rGRPP nor rGRPP‐LP modified these parameters compared with control values
same,"Glucose output, epinephrine‐stimulated (effect of peptide vs control)",[2],Neither dose of rGRPP nor rGRPP‐LP modified these parameters compared with control values
same,"Glucose output, epinephrine‐stimulated (effect of peptide vs control)",[2]; listed as GRPP‐LP,not modified by rGRPP or GRPP‐LP
same,Insulin secretion at 5 mmol L^−1 glucose (vs control),[3],No significant difference in insulin secretion
same,Glucose‐stimulated insulin secretion (GSIS) at 20 mmol L^−1 glucose (vs control),[3],potent inhibition of glucose‐stimulated insulin secretion (GSIS) from the rat pancreas; also recorded: inhibited GSIS
same,First phase of GSIS (vs control),[3],inhibited the initial first phase of GSIS in the isolated rat pancreas
same,Second phase of GSIS (vs control),[3],ongoing suppression of insulin secretion throughout the second phase
same,Stimulation of cAMP production at hGL‐R,[4],neither rGRPP nor rGRPP‐LP stimulated cAMP production at either receptor
same,Stimulation of cAMP production at hGLP‐1R,[5],neither rGRPP nor rGRPP‐LP stimulated cAMP production at either receptor
same,Antagonism of glucagon‐stimulated cAMP production,[6],nor did they antagonize glucagon‐ or GLP‐1‐stimulated cAMP‐production at either receptor
same,Antagonism of GLP‐1‐stimulated cAMP production,[7],nor did they antagonize glucagon‐ or GLP‐1‐stimulated cAMP‐production at either receptor
"HAPQDTEENARSFPASQTEPLEDPDQINED [rGRPP, rat glicentin‐related pancreatic polypeptide, 30 amino acid Gcg‐derived peptide, synthesized by Fmoc solid‐phase peptide synthesis]",Lactate output (effect of peptide vs control),[2],Neither dose of rGRPP nor rGRPP‐LP modified these parameters compared with control values
same,Portal pressure (effect of peptide vs control),[2],Neither dose of rGRPP nor rGRPP‐LP modified these parameters compared with control values
same,"Glucose output, epinephrine‐stimulated (effect of peptide vs control)",[2],not modified by rGRPP or GRPP‐LP; also recorded: Neither dose of rGRPP nor rGRPP‐LP modified these parameters compared with control values
same,Insulin secretion at 5 mmol L^−1 glucose (vs control),[3],No significant difference in insulin secretion
same,Glucose‐stimulated insulin secretion (GSIS) at 20 mmol L^−1 glucose (vs control),[3],potent inhibition of glucose‐stimulated insulin secretion (GSIS) from the rat pancreas; also recorded: inhibited GSIS
same,First phase of GSIS (vs control),[3],inhibited the initial first phase of GSIS in the isolated rat pancreas
same,Second phase of GSIS (vs control),[3],ongoing suppression of insulin secretion throughout the second phase
same,Stimulation of cAMP production at hGL‐R,[4],neither rGRPP nor rGRPP‐LP stimulated cAMP production at either receptor
same,Stimulation of cAMP production at hGLP‐1R,[5],neither rGRPP nor rGRPP‐LP stimulated cAMP production at either receptor
same,Antagonism of glucagon‐stimulated cAMP production,[6],nor did they antagonize glucagon‐ or GLP‐1‐stimulated cAMP‐production at either receptor; also recorded: no shifts in the GLP‐1 7–36 or glucagon concentration–response curves
same,Antagonism of GLP‐1‐stimulated cAMP production,[7],nor did they antagonize glucagon‐ or GLP‐1‐stimulated cAMP‐production at either receptor; also recorded: no shifts in the GLP‐1 7–36 or glucagon concentration–response curves
"human glicentin 12–69: encompasses both GRPP and glucagon sequences (SFSASQADPLSDPDQMNEDKRHSQGTFTSDYSKYLDSRRAQDFVQWLMNTKRNRNNIA; Glicentin; UniProt P01275 32-89, looked up, fragment)","GSIS and glucagon secretion, perfused canine pancreas",[1]; ref Yanaihara et al. 1985,enhanced GSIS and inhibited glucagon secretion in the perfused canine pancreas
"CNC[C@H](O)c1ccc(O)c(O)c1 [epinephrine, reference compound]","Glucose output, effect of epinephrine",[2]; [8],evoked an increase in glucose output in all groups
same,"Lactate release, effect of epinephrine",[2]; [8],expected elevation of lactate release
same,"Portal pressure, effect of epinephrine",[2]; [8],expected elevation of lactate release and portal pressure
"human glicentin 1–16: human glicentin 1–16, literature peptide (RSLQDTEEKSRSFSAS; Glicentin; UniProt P01275 21-36, looked up, fragment)","Plasma insulin and glucagon, canine pancreas","[1]; local circulation preparation of the canine pancreas, ref Ohneda and Ohneda 1988",slight increases in plasma insulin and decreases in plasma glucagon
